According to US12234230B2, “Substituted benzyl-triazole compounds for Cbl-b inhibition, and further uses thereof” (Nurix Therapeutics, Inc., priority 2019, dated 2025):

How the values were obtained:
[1] = tested on: primary human total T-cells; test: Primary human total T-cell activation (IL-2 secretion, CD25 surface staining), Biological Example 12; conditions: fold change over baseline, Table 12-1; for IL-2 secretion CD3/CD28 0.3 μM: 0.3 μM inhibitor; for IL-2 secretion CD3/CD28 0.3 μM / IL-2 secretion CD3/CD28 1 μM: anti-CD3 and anti-CD28 co-stimulation; for IL-2 secretion CD3/CD28 1 μM / IL-2 secretion CD3 1 μM: 1 μM inhibitor; for IL-2 secretion CD3 1 μM / IL-2 secretion CD3 3 μM: anti-CD3 stimulation alone; for IL-2 secretion CD3 3 μM: 3 μM inhibitor
Protocol: Peripheral blood mononuclear cells (PBMC) were obtained either: 1) by using Ficoll-Paque™ (GE Healthcare) for separation of peripheral blood hematopoietic cells from buffy coats of healthy human donors; or 2) directly from LeukoPak donations. […] The cells were rested overnight at 37° C. 5% CO2. The Cbl-inhibitor was added to 1×10^5 cells per well and the plate was incubated for one hour at 37° C. in 5% CO2 at the concentrations indicated (Table 12-1) with a final DMSO concentration of <0.1%. For samples stimulated with anti-CD3 antibody and anti-CD28 antibody (anti-CD3/anti-CD28), the Cbl-b inhibitor concentrations tested were 1 μM, and 0.3 μM. For samples stimulated with anti-CD3 antibody alone (anti-CD3), the Cbl-b inhibitor concentrations tested were 3 μM, and 1 μM. […] To prepare plates with plate bound anti-CD3 antibody (OKT3), 96-well round bottom tissue culture plates were coated with 100 μL of anti-CD3 antibody (OKT3) at 10 μg/mL for 4 hours at 37° C. 5% CO2 in phosphate buffered saline (PBS). […] Cells were stimulated for 48 hours prior to harvesting the cell free supernatant and staining the cell population for surface marker assessment by flow cytometry. Supernatants were analyzed for cytokine secretion, including IL-2 by ELISA (R&D Systems, Peprotech or Life Technologies) or Luminex multiplex kits (Procarta Life Technologies) following the manufacturer's protocol. Cells were stained with anti-CD25 antibody (BD Biosciences) to assess levels of surface marker of activation.
Readouts were reported as fold change over baseline. Baseline for this study was the measurement obtained from total human T-cells stimulated with anti-CD3 antibody and with soluble anti-CD28 antibody, wherein the cells were not incubated with a Cbl-b inhibitor (Table 12-1). […] For T-cells stimulated with anti-CD3 alone, changes greater than 0.1-fold over baseline for IL-2 secretion and greater than 0.6-fold over baseline for CD25 surface staining were considered significant and a positive response.

TC-1 cells = test: TC-1 syngeneic mouse model, vaccine combination, Biological Example 15; type: in vivo; conditions: Compound 23 orally D13 to D47 in combination with HPV16 vaccine s.c. at D13 and D20; TC-1 tumor bearing mice
Protocol: Mice were implanted with 50,000 TC-1 cells/mouse subcutaneously into the right flank at Day Zero (DO). Thirteen days later (D13), when tumors measured approximately 50-100 mm^3, mice from appropriate groups (15 mice per group) were injected with HPV16 vaccine (s.c., total 2 doses, at D13 and Day 20 (D20)). […] Mice were euthanized when tumor exceeded 1500-2000 mm^3, according to IACUC guidelines. Survival was compared using GraphPad Prism using log-rank (Mantel-Cox) test. **=p<0.001 of treatment vs. Vehicle+Vaccine control group at Day 61.
TC-1 cells were derived by stable transfection of mouse lung epithelial cells with human papillomavirus strain 16 (HPV16) early proteins 6 and 7 (E6 and E7) and activated h-ras oncogene. Cells were obtained from Dr. T-C Wu (Johns Hopkins University). (Lin K Y, Guarnieri F G, Staveley-O'Carroll K F, Levitsky H I, August J T, Pardoll D M, et al. Treatment of established tumors with a novel vaccine that enhances major histocompatibility class II presentation of tumor antigen. Cancer Res 1996; 56:21-6).
The HPV16 vaccine was prepared as follows: The CTL epitope from HPV16 E749-57 (9 amino acid (aa) peptide, […], 100 μg/mouse, SEQ ID NO: 2) was mixed with synthetic T helper epitope PADRE (13 aa peptide, aK-Cha-[…]a, SEQ ID NO: 3, where “a” is D-alanine and Cha is L-cyclohexylalanine, 20 μg/mouse) and with QuilA adjuvant (20 ug/mouse).

Cbl-b [2] = target: T1, Cbl-b (Homo sapiens (Human), UniProt Q13191); test: Cbl-b displacement assay (Cbl-b inhibition assay), Biological Example 11; type: binding; conditions: 0.125 nM Cbl-b final concentration (Low); Table 11-1
Protocol: (§1) Candidate compounds were evaluated for their ability to bind and inhibit Cbl-b, an E3 ubiquitin-protein ligase, as evidenced by their ability to displace a fluorophore-labeled probe bound to Cbl-b.
(§2) The ability of candidate compounds to displace a known inhibitor and thereby inhibit Cbl-b activity was measured by monitoring the interaction of Cbl-b with a fluorophore-labeled probe in the presence of the candidate compound.
(§3) Fluorescently-labeled inhibitor probe was synthesized and tagged with BODIPY FL. […] Following the one hour incubation, the plates were read for TR-FRET signal at 520/620 nm using an Envision plate reader (Perkin Elmer).
(§4) The resulting data for the Cbl-b activity assays were analyzed using standard methods to determine the IC50 values for the tested compounds.

Cbl-b [3] = target: T1, Cbl-b; test: Cbl-b displacement assay (Cbl-b inhibition assay), Biological Example 1; type: binding; conditions: 0.125 nM Cbl-b final concentration (Low); read-out: Cbl-b activity IC50 (Low)
Protocol: as §2
Following the one hour incubation, the plates were read for TR-FRET signal at 520/620 nm using an Envision plate reader (Perkin Elmer).

[4] = tested on: primary human total T-cells; test: Primary human total T-cell activation (IL-2 secretion, CD25 surface staining), Biological Example 2; conditions: fold change over baseline; for CD25 staining CD3/CD28 0.3 μM / IL-2 secretion CD3/CD28 0.3 μM: 0.3 μM inhibitor; for CD25 staining CD3/CD28 0.3 μM / IL-2 secretion CD3/CD28 0.3 μM / CD25 staining CD3/CD28 1 μM / IL-2 secretion CD3/CD28 1 μM: anti-CD3 and anti-CD28 co-stimulation; for CD25 staining CD3/CD28 1 μM / IL-2 secretion CD3/CD28 1 μM / CD25 staining CD3 1 μM / IL-2 secretion CD3 1 μM: 1 μM inhibitor; for CD25 staining CD3 1 μM / IL-2 secretion CD3 1 μM / CD25 staining CD3 3 μM / IL-2 secretion CD3 3 μM: anti-CD3 stimulation alone; for CD25 staining CD3 3 μM / IL-2 secretion CD3 3 μM: 3 μM inhibitor
Protocol: Peripheral blood mononuclear cells (PBMC) were obtained either: 1) by using Ficoll-Paque™ (GE Healthcare) for separation of peripheral blood hematopoietic cells from buffy coats of healthy human donors; or 2) directly from LeukoPak donations. […] The cells were rested overnight at 37° C. 5% CO2. The Cbl-inhibitor was added to 1×10^5 cells per well and the plate was incubated for one hour at 37° C. in 5% CO2 at the concentrations indicated (Table 3) with a final DMSO concentration of <0.1%. For samples stimulated with anti-CD3 antibody and anti-CD28 antibody (anti-CD3/anti-CD28), the Cbl-b inhibitor concentrations tested were 1 μM, and 0.3 μM. For samples stimulated with anti-CD3 antibody alone (anti-CD3), the Cbl-b inhibitor concentrations tested were 3 μM, and 1 μM. […] To prepare plates with plate bound anti-CD3 antibody (OKT3), 96-well round bottom tissue culture plates were coated with 100 μL of anti-CD3 antibody (OKT3) at 10 μg/mL for 4 hours at 37° C. 5% CO2 in phosphate buffered saline (PBS). […] Cells were stimulated for 48 hours prior to harvesting the cell free supernatant and staining the cell population for surface marker assessment by flow cytometry. Supernatants were analyzed for cytokine secretion, including IL-2 by ELISA (R&D Systems, Peprotech or Life Technologies) or Luminex multiplex kits (Procarta Life Technologies) following the manufacturer's protocol. Cells were stained with anti-CD25 antibody (BD Biosciences) to assess levels of surface marker of activation.
Readouts were reported as fold change over baseline. Baseline for this study was the measurement obtained from total human T-cells stimulated with anti-CD3 antibody and with soluble anti-CD28 antibody, wherein the cells were not incubated with a Cbl-b inhibitor (Table 3).

[5] = tested on: primary human total T-cells; test: Primary human total T-cell activation (IL-2 secretion, CD25 surface staining), Biological Example 9; conditions: fold change over baseline, Table 9-1; for IL-2 secretion CD3/CD28 0.3 μM: 0.3 μM inhibitor; for IL-2 secretion CD3/CD28 0.3 μM / IL-2 secretion CD3/CD28 1 μM: anti-CD3 and anti-CD28 co-stimulation; for IL-2 secretion CD3/CD28 1 μM / IL-2 secretion CD3 1 μM: 1 μM inhibitor; for IL-2 secretion CD3 1 μM / IL-2 secretion CD3 3 μM: anti-CD3 stimulation alone; for IL-2 secretion CD3 3 μM: 3 μM inhibitor
Protocol: Peripheral blood mononuclear cells (PBMC) were obtained either: 1) by using Ficoll-Paque™ (GE Healthcare) for separation of peripheral blood hematopoietic cells from buffy coats of healthy human donors; or 2) directly from LeukoPak donations. […] The cells were rested overnight at 37° C. 5% CO2. The Cbl-inhibitor was added to 1×10^5 cells per well and the plate was incubated for one hour at 37° C. in 5% CO2 at the concentrations indicated (Table 9-1) with a final DMSO concentration of <0.1%. For samples stimulated with anti-CD3 antibody and anti-CD28 antibody (anti-CD3/anti-CD28), the Cbl-b inhibitor concentrations tested were 1 μM, and 0.3 μM. For samples stimulated with anti-CD3 antibody alone (anti-CD3), the Cbl-b inhibitor concentrations tested were 3 μM, and 1 μM. […] To prepare plates with plate bound anti-CD3 antibody (OKT3), 96-well round bottom tissue culture plates were coated with 100 μL of anti-CD3 antibody (OKT3) at 10 μg/mL for 4 hours at 37° C. 5% CO2 in phosphate buffered saline (PBS). […] Cells were stimulated for 48 hours prior to harvesting the cell free supernatant and staining the cell population for surface marker assessment by flow cytometry. Supernatants were analyzed for cytokine secretion, including IL-2 by ELISA (R&D Systems, Peprotech or Life Technologies) or Luminex multiplex kits (Procarta Life Technologies) following the manufacturer's protocol. Cells were stained with anti-CD25 antibody (BD Biosciences) to assess levels of surface marker of activation.
Readouts were reported as fold change over baseline. Baseline for this study was the measurement obtained from total human T-cells stimulated with anti-CD3 antibody and with soluble anti-CD28 antibody, wherein the cells were not incubated with a Cbl-b inhibitor (Table 9-1). […] For T-cells stimulated with anti-CD3 alone, changes greater than 0.1-fold over baseline for IL-2 secretion and greater than 0.6-fold over baseline for CD25 surface staining were considered significant and a positive response.

[6] = tested on: colon carcinoma CT26 tumor cells; conditions: 30 mg/kg PO daily D8 to D28; CT26 tumors on both flanks; compared to vehicle control
Protocol: Mice were implanted with 100,000 colon carcinoma CT26 tumor cells on both flanks of the mice. […] Treatments were continued daily until Day Twenty Eight (D28). […] A group of mice received an oral vehicle (0.5% Methylcellulose, 0.2% Polysorbate 80). Tumor growth inhibition (TGI) was calculated as follows: (1−(median tumor volume of drug treated group/median tumor volume of vehicle treated group))×100.

Cbl-b [7] = target: T1, Cbl-b; test: Cbl-b displacement assay (Cbl-b inhibition assay), Biological Example 8; type: binding; conditions: 0.125 nM Cbl-b final concentration (Low); Table 8-1
Protocol: as §1, §2, §3, §4

T1 sequence (Q13191 36-427): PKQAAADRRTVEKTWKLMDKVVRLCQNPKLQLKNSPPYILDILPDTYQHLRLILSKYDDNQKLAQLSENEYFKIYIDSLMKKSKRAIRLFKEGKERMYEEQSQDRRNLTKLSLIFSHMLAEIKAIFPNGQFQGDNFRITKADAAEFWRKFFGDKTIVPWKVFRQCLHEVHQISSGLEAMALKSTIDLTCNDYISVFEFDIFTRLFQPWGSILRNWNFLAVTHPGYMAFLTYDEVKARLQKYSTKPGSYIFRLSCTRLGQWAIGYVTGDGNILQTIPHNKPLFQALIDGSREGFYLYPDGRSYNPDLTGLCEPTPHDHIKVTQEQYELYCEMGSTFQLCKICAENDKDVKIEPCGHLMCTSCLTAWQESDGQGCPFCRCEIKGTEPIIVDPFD

IC50 (Cbl-b [2]) [nM]	IC50 (Cbl-b [3]) [nM]	IC50 (Cbl-b [7]) [nM]	SMILES	IL-2 secretion CD3/CD28 0.3 μM [1]	IL-2 secretion CD3/CD28 1 μM [1]	CD25 staining CD3/CD28 0.3 μM [4]	IL-2 secretion CD3/CD28 0.3 μM [4]	CD25 staining CD3/CD28 1 μM [4]	IL-2 secretion CD3/CD28 1 μM [4]	IL-2 secretion CD3/CD28 0.3 μM [5]	IL-2 secretion CD3/CD28 1 μM [5]	IL-2 secretion CD3 1 μM [1]	IL-2 secretion CD3 3 μM [1]	CD25 staining CD3 1 μM [4]	IL-2 secretion CD3 1 μM [4]	CD25 staining CD3 3 μM [4]	IL-2 secretion CD3 3 μM [4]	IL-2 secretion CD3 1 μM [5]	IL-2 secretion CD3 3 μM [5]	further results
1 to 5	< 5	1 to 5	C[C@H]1CCCN(Cc2cc3c(c(C(F)(F)F)c2)CN(c2cccc([C@]4(c5nncn5C)C[C@@H](C#N)C4)c2)C3=O)C1 [Compound 38, (1R,3s)-3-(4-methyl-4H-1,2,4-triazol-3-yl)-3-(3-(6-(((S)-3-methylpiperidin-1-yl)methyl)-1-oxo-4-(trifluoromethyl)isoindolin-2-yl)phenyl)cyclobutane-1-carbonitrile]	A (A indicates >15 fold)	A (A indicates >15 fold)	–	B (B indicates 20-35 fold)	–	B (B indicates 20-35 fold)	A (A indicates >15 fold)	A (A indicates >15 fold)	A (A indicates >0.66 fold)	A (A indicates >0.66 fold)	A (A indicates >2.5 fold)	A (A indicates >1.1 fold)	A (A indicates >2.5 fold)	B (B indicates 0.70-1.1 fold)	A (A indicates >0.66 fold)	A (A indicates >0.66 fold)	–
< 1	< 5	< 1	C[C@H]1CCCN(Cc2cc3c(c(C(F)(F)F)c2)CN(c2cccc(C4(c5nncn5C)CC5(CC5)C4)c2)C3=O)C1 [Compound 42, 6-[[(3S)-3-methyl-1-piperidyl]methyl]-2-[3-[5-(4-methyl-1,2,4-triazol-3-yl)spiro[2.3]hexan-5-yl]phenyl]-4-(trifluoromethyl)isoindolin-1-one]	A (A indicates >15 fold)	A (A indicates >15 fold)	B (B indicates 1.24-1.39 fold)	B (B indicates 20-35 fold)	B (B indicates 1.24-1.39 fold)	A (A indicates >35 fold)	A (A indicates >15 fold)	A (A indicates >15 fold)	A (A indicates >0.66 fold)	A (A indicates >0.66 fold)	A (A indicates >2.5 fold)	A (A indicates >1.1 fold)	A (A indicates >2.5 fold)	A (A indicates >1.1 fold)	A (A indicates >0.66 fold)	A (A indicates >0.66 fold)	–

SMILES	IC50 (Cbl-b [2]) [nM]	IC50 (Cbl-b [3]) [nM]	IC50 (Cbl-b [7]) [nM]	IL-2 secretion CD3/CD28 0.3 μM [1]	IL-2 secretion CD3/CD28 1 μM [1]	CD25 staining CD3/CD28 0.3 μM [4]	IL-2 secretion CD3/CD28 0.3 μM [4]	CD25 staining CD3/CD28 1 μM [4]	IL-2 secretion CD3/CD28 1 μM [4]	IL-2 secretion CD3/CD28 0.3 μM [5]	IL-2 secretion CD3/CD28 1 μM [5]	IL-2 secretion CD3 1 μM [1]	IL-2 secretion CD3 3 μM [1]	CD25 staining CD3 1 μM [4]	IL-2 secretion CD3 1 μM [4]	CD25 staining CD3 3 μM [4]	IL-2 secretion CD3 3 μM [4]	IL-2 secretion CD3 1 μM [5]	IL-2 secretion CD3 3 μM [5]	further results
C[C@H]1CCCN(Cc2cc3c(c(C(F)(F)F)c2)CN(c2cccc([C@]4(c5nncn5C)C[C@@H](C)C4)c2)C3=O)C1 [Compound 23, 2-(3-((1s,3R)-3-methyl-1-(4-methyl-4H-1,2,4-triazol-3-yl)cyclobutyl)phenyl)-6-(((S)-3-methylpiperidin-1-yl)methyl)-4-(trifluoromethyl)isoindolin-1-one]	< 1	< 5	< 1	A (A indicates >15 fold)	A (A indicates >15 fold)	B (B indicates 1.24-1.39 fold)	C (C indicates <20 fold)	B (B indicates 1.24-1.39 fold)	C (C indicates <20 fold)	A (A indicates >15 fold)	A (A indicates >15 fold)	–	–	–	–	–	–	–	–	survival (TC-1 cells): prolonged survival; tumor progression (tumor volume) (TC-1 cells): significant slowdown of tumor progression; Tumor growth inhibition (TGI) [6]: 68%
